Experimental data as given in patent US7868005B2, “Pyrazinyl substituted piperazine-piperidines with CXCR3 antagonist activity” (Schering Corporation, priority 2005, dated 2011).

Each compound was assayed against T1, human CXCR3 (N-delta 4) (Homo sapiens, UniProt P49682) (assay: Human CXCR3 (N-delta 4) Scintillation Proximity Assay (SPA), [125I] IP-10 binding to Ba/F3-hCXCR3 membranes). Conditions: IC50 rating, Table 1; read-out: IC50.
T1 construct: CD8 leader (N); Flag; expressed in transfected cells; membranes prepared
T1 sequence (P49682 5-368 limits assumed): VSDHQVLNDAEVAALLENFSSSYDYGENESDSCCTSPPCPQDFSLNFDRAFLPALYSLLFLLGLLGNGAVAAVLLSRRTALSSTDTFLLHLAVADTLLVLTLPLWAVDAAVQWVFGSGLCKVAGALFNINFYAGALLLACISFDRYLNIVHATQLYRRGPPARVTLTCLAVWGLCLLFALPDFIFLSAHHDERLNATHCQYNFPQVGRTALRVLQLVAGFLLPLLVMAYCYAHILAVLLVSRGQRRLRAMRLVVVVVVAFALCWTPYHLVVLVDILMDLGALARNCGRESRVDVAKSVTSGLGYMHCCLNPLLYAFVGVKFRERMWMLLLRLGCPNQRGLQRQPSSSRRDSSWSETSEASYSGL
Source text: The inventive compounds can readily be evaluated to determine activity at the CXCR3 receptors by known methods, such as, for example, development of a human CXCR3 (N-delta 4) Binding Assay.
Cloning and Expression of Human CXCR3 (N-delta 4):
The DNA encoding human CXCR3 was cloned by PCR using human genomic DNA (Promega, Madison, Wis.) as a template. The PCR primers were designed based on the published sequence of human orphan receptor GPR9 (1) with incorporated restriction sites, a Kozak consensus sequence, CD8 leader and Flag tag. The PCR product was subcloned into the mammalian expression vector pME18Sneo, a derivative of the SR-alpha expression vector (designated as pME18Sneo-hCXCR3 (N-delta 4).
IL-3-dependent mouse pro-B cells Ba/F3 were transfected by electroporation in 0.4 ml Dulbecco's PBS containing 4×10^6 cells with 20 μg of pME18Sneo-hCXCR3 (N-delta 4) plasmid DNA. Cells were pulsed at 400 Volts, 100 OHMs, 960 μFd. The transfected cells were under selection with 1 mg/ml G418 (Life Technologies, Gaithersburg, Md.). G418-resistant Ba/F3 clones were screened for CXCR3 expression by specific binding of [^125I] IP-10 (NEN Life Science Products, Boston, Mass.).
Preparation of Ba/F3-hCXCR3 (N-delta 4) Membranes:
Ba/F3 cells expressing human CXCR3 (N-delta 4) were pelleted and resuspended in the lysis buffer containing 10 mM HEPES, pH 7.5 and Complete® protease inhibitors (1 tablet per 100 ml) (Boehringer Mannheim, Indianapolis, Ind.) at a cell density of 20×10^6 cells per ml. After 5 minute incubation on ice, cells were transferred to 4639 cell disruption bomb (Parr Instrument, Moline, Ill.) and applied with 1,500 psi of nitrogen for 30 minutes on ice. Large cellular debris was removed by centrifugation at 1,000×g. Cell membrane in the supernatant was sedimented at 100,000×g. The membrane was resuspended in the lysis buffer supplemented with 10% sucrose and stored at −80° C. Total protein concentration of the membrane was determined by BCA method from Pierce (Rockford, Ill.).
Human CXCR3 (N-delta 4) Scintillation Proximity Assay (SPA):
For each assay point, 2 μg of membrane was preincubated for 1 hr with 300 μg wheat germ agglutinin (WGA) coated SPA beads (Amersham, Arlington Heights, Ill.) in the binding buffer (50 mM HEPES, 1 mM CaCl2, 5 mM MgCl2, 125 mM NaCl, 0.002% NaN3, 1.0% BSA) at room temperature. The beads were spun down, washed once, resuspended in the binding buffer and transferred to a 96-well Isoplate (Wallac, Gaithersburg, Md.). 25 pM of [^125I] IP-10 with tested compounds in a series of titration were added to start the reaction. After 3 hr reaction at room temperature, the amount of [^125I] IP-10 bound to the SPA beads was determined with a Wallac 1450 Microbeta counter.
The Ki ratings for the various compounds of the present invention are given in the afore-mentioned Table 1. From these ratings and value ranges, it would be apparent to the skilled artisan that the compounds of the invention have excellent utility as CXCR3 receptor antagonists.

| Compound | IC50 [nM] |
| --- | --- |
| CC[C@H]1CN(c2nc(N)c(C(=O)NCCC#N)nc2Cl)CCN1C1CCN(Cc2ccc(C#N)cc2)CC1 [compound 228] | < 25 |
| CC[C@H]1CN(c2nc(N)c(C(=O)NCC(F)(F)F)nc2Cl)CCN1C1CCN(Cc2ccc(Cl)cc2)CC1 [compound 216] | < 25 |
| CC[C@H]1CN(c2nc(N)c(C(=O)NCCO)nc2Cl)CCN1C1CCN(Cc2ccc(Cl)cc2C(C)C(=O)OC)CC1 (stereo partly shown) [compound 194] | > 100 |
| CC[C@H]1CN(c2nc(N)c(C(=O)NC3CC3)nc2Cl)CCN1C1CCN(Cc2ccc(OCC(N)=O)cc2)CC1 [compound 97] | > 100 |
| CC[C@H]1CN(c2nc(N)c(C(=O)NCCO)nc2Cl)CCN1C1CCN(Cc2ccc(Cl)cc2OCCCO)CC1 [compound 169] | < 25 |
| CC[C@H]1CN(c2nc(N)c(C(=O)NC3CCOC3=O)nc2Cl)CCN1C1CCN(Cc2ccc(Cl)cc2)CC1 (stereo partly shown) [compound 278] | < 25 |
| CC[C@H]1CN(c2nc(N)c(C(=O)NCC(=O)OC)nc2Cl)CCN1C1CCN(Cc2ccc(Cl)cc2)CC1 [compound 214] | < 25 |
| CC[C@H]1CN(c2nc(N)c(C(N)=O)nc2Cl)CCN1C1CCN(C(=O)c2ccc(Cl)cc2CC(N)=O)CC1 [compound 357] | > 100 |
| CC[C@H]1CN(c2nc(N)c(C(=O)NCCO)nc2Cl)CCN1C1CCN(Cc2ccc(Cl)cc2OCCNS(N)(=O)=O)CC1 [compound 134] | < 25 |
| CC[C@H]1CN(c2ncc(C(=O)NC)nc2C)[C@H](C)CN1C1CCN(C(=O)c2ccc(Cl)cc2)CC1 [compound 452] | < 25 |
| CC[C@H]1CN(c2nc(N)c(C(=O)NCCNC(C)=O)nc2Cl)CCN1C1CCN(Cc2ccc(Cl)cc2)CC1 [compound 230] | < 25 |
| CC[C@H]1CN(c2nc(N)c(C(=O)NCCO)nc2C)[C@H](C)CN1C1CCN(C(=O)c2ccc(Cl)cc2)CC1 [compound 482] | < 25 |
| CC[C@H]1CN(c2nc(N)c(C(=O)NC)nc2Cl)CCN1C1CCN(Cc2ccc(-n3cccn3)cc2)CC1 [compound 66] | < 25 |
| CC[C@H]1CN(c2nc(N)c(C(=O)NC3CC3)nc2Cl)CCN1C1CCN(Cc2ccc(Cl)cc2CN)CC1 [compound 87] | < 25 |
| CC[C@H]1CN(c2nc(N)c(C(=O)NC[C@@H](O)CO)nc2Cl)CCN1C1CCN(C(=O)c2ccc(Cl)cc2)CC1 [compound 356] | > 100 |
| CC[C@H]1CN(c2nc(N)c(C(=O)N[C@@H]3CCCNC3=O)nc2Cl)CCN1C1CCN(Cc2ccc(C#N)cc2)CC1 [compound 210] | > 100 |
| CC[C@H]1CN(c2nc(N)c(C(=O)NCCNS(=O)(=O)c3cn(C)cn3)nc2Cl)CCN1C1CCN(Cc2ccc(C#N)cc2)CC1 [compound 237] | > 100 |
| CC[C@H]1CN(c2nc(N)c(C(=O)NCCO)nc2Cl)CCN1C1CCN(Cc2ccc(F)c(OCCSC)c2)CC1 [compound 413] | < 25 |
| CC[C@H]1CN(c2nc(N)c(C(=O)NCCO)nc2Cl)CCN1C1CCN(C(=O)c2ccc(Cl)cc2O)CC1 [compound 322] | 25 to 100 |
| CC[C@H]1CN(c2nc(N)c(C(=O)NCCNS(C)(=O)=O)nc2Cl)CCN1C1CCN([C@H](C(=O)OC)c2ccc(Cl)cc2)CC1 [compound 251] | > 100 |
| CC[C@H]1CN(c2nc(N)c(C(=O)NC3CC3)nc2Cl)CCN1C1CCN(Cc2ccc(Cl)cc2)CC1O (stereo partly shown) [compound 98] | > 100 |
| CC[C@H]1CN(c2nc(N)c(C(=O)NC)nc2Cl)CCN1C1CCN(C(=O)c2ccc(Cl)cc2C)CC1 [compound 341] | 25 to 100 |
| CC[C@H]1CN(c2nc(N)c(C(N)=O)nc2Cl)CCN1C1CCN(Cc2ccc(Cl)cc2CCNC=O)CC1 [compound 32] | 25 to 100 |
| CCNC(=O)c1nc(Cl)c(N2CCN(C3CCN(Cc4ccc(Cl)cc4F)CC3)[C@@H](CC)C2)nc1N [compound 103] | < 25 |

| Compound | IC50 [nM] |
| --- | --- |
| CCNC(=O)c1nc(Cl)c(N2CCN(C3CCN(Cc4ccc(Cl)cc4)CC3)[C@@H](CC)C2)nc1N [compound 102] | < 25 |
| CC[C@H]1CN(c2nc(N)c(C(=O)NCCO)nc2Cl)CCN1C1CCN(C(C(=O)O)c2ccc(Cl)cc2)CC1 (stereo partly shown) [compound 184] | 25 to 100 |
| CC[C@H]1CN(c2nc(N)c(C(N)=O)nc2Cl)CCN1C1CCN(Cc2ccc(-n3cncn3)cc2)CC1 [compound 54] | > 100 |
| CC[C@H]1CN(c2ncc(C(N)=O)nc2Cl)CCN1C1CCN(Cc2ccc(Cl)cc2[C@H](O)C(N)=O)CC1 [compound 396] | < 25 |
| CC[C@H]1CN(c2ncc(C(N)=O)nc2C)CCN1C1CCN(Cc2ccc(F)cc2)CC1 [compound 431] | < 25 |
| CC[C@H]1CN(c2nc(N)c(C(=O)NCCO)nc2Cl)CCN1C1CCN(C(=O)c2ccc(C#CC(C)(C)O)cc2)CC1 [compound 346] | 25 to 100 |
| CCNC(=O)c1nc(Cl)c(N2CCN(C3CCN(C(=O)c4ccc(Cl)cc4)CC3)[C@@H](CC)C2)nc1N [compound 332] | < 25 |
| CC[C@H]1CN(c2nc(N)c(C(=O)NCCO)nc2Cl)CCN1C1CCN(Cc2cc(F)c(F)c(F)c2O)CC1 [compound 181] | 25 to 100 |
| CC[C@H]1CN(c2nc(N)c(C(=O)NCCO)nc2Cl)CCN1C1CCN(Cc2ccc(F)c(F)c2)CC1 [compound 123] | < 25 |
| CC[C@H]1CN(c2nc(N)c(C(=O)NCCNS(C)(=O)=O)nc2Cl)CCN1C1CCN(Cc2ccc(F)c(F)c2N2CC[C@@H](O)C2)CC1 [compound 252] | 25 to 100 |
| CC[C@H]1CN(c2nc(N)c(C(=O)OC)nc2Cl)CCN1C1(C)CCN(Cc2ccc(Cl)cc2)CC1 [compound 310] | > 100 |
| CC[C@H]1CN(c2nc(N)c(C(=O)NC[C@@H](C)O)nc2Cl)CCN1C1CCN(Cc2ccc(Cl)cc2CCNS(C)(=O)=O)CC1 [compound 223] | < 25 |
| CC[C@H]1CN(c2nc(N)c(C(N)=O)nc2Cl)CCN1C1CCN(Cc2ccc(Cl)cc2C(=O)O)CC1 [compound 26] | 25 to 100 |
| CC[C@H]1CN(c2nc(N)c(C(=O)NCCO)nc2Cl)CCN1C1CCN(Cc2ccc(OC(F)(F)F)cc2O)CC1 [compound 166] | < 25 |
| CC[C@H]1CN(c2nc(N)c(C(=O)NCCO)nc2Cl)CCN1C1CCN(Cc2ccc(-c3ccc(F)cc3)cc2)CC1 [compound 140] | < 25 |
| CC[C@H]1CN(c2ncc(C(N)=O)nc2Br)CCN1C1CCN(C(=O)c2ccc(Cl)cc2)CC1 [compound 387] | < 25 |
| CC[C@H]1CN(c2nc(N)c(C(=O)NC)nc2Cl)CCN1C1CCN(C(=O)c2ccc(Br)c(F)c2)CC1 [compound 333] | < 25 |
| CC[C@H]1CN(c2nc(N)c(C(=O)NCCO)nc2Cl)CCN1C1CCN(Cc2ccc(OC)c(F)c2)CC1 [compound 397] | < 25 |
| CC[C@H]1CN(c2nc(N)c(C(=O)NCCO)nc2Cl)CCN1C1CCN(C(=O)c2ccc(F)c(F)c2)CC1 [compound 318] | 25 to 100 |
| CC[C@H]1CN(c2nc(N)c(C(=O)NCCO)nc2Cl)CCN1C1CCN(Cc2cc(F)c(Cl)cc2OCCCO)CC1 [compound 139] | < 25 |
| CC[C@H]1CN(c2ncc(C(N)=O)nc2Cl)CCN1C1CCN([C@@H](C(=O)OC)c2ccc(Cl)cc2)CC1 [compound 476] | < 25 |
| CCNC(=O)c1cnc(N2CCN(C3CCN(C(=O)c4ccc(Cl)cc4)CC3)[C@@H](CC)C2)c(C)n1 [compound 451] | < 25 |
| CC[C@H]1CN(c2nc(N)c(C(N)=O)nc2Cl)CCN1C1CCN(Cc2ccc(C(=O)NC)cc2)CC1 [compound 59] | > 100 |

Same assay, conditions: human; read-out: human IC50

| Compound | IC50 [nM] |
| --- | --- |
| CC[C@H]1CN(c2nc(N)c(C(=O)NC)nc2Cl)CCN1C1CCN(Cc2ccc(Cl)cc2)CC1 [Formula 9] | < 1 |
| CC[C@H]1CN(c2nc(N)c(C(=O)NCCO)nc2Cl)CCN1C1CCN([C@@H](CO)c2ccc(Cl)cc2)CC1 [Formula 8] | < 1 |
